Measured values reported in the NIST ThermoML archive (doi:10.1021/je8007217).

How the values were obtained:
[1] = 298.15 K, 101 kPa, Liquid; for viscosity: Capillary tube (Ostwald / Ubbelohde) method; for mass density: Pycnometric method
[2] = xn = mol fraction of the nth substance listed; conditions: 298.15 K, 101 kPa, Liquid; for viscosity: Capillary tube (Ostwald / Ubbelohde) method; for mass density: Pycnometric method

C1CCCCC1 [cyclohexane]
[1]
Conditions | mass density [kg/m3] | viscosity [mPa·s]
– | 773.8 | 0.892

C1CCCCC1 [cyclohexane] + CCCOC(C)=O
[2], x1 = 1
Conditions | mass density [kg/m3] | viscosity [mPa·s]
– | 773.8 | 0.892

C1CCCCC1 [cyclohexane] + CCOC(C)=O
[2], x1 = 1
Conditions | mass density [kg/m3] | viscosity [mPa·s]
– | 773.8 | 0.892

C1CCCCC1 [cyclohexane] + COC(C)=O
[2], x1 = 1
Conditions | mass density [kg/m3] | viscosity [mPa·s]
– | 773.8 | 0.892

C1CCCCC1 [cyclohexane] + O=C1CCCCC1
[2], x1 = 1
Conditions | mass density [kg/m3] | viscosity [mPa·s]
– | 773.8 | 0.892

O=C1CCCCC1 [cyclohexanone]
[1]
Conditions | mass density [kg/m3] | viscosity [mPa·s]
– | 941.6 | 2.02

O=C1CCCCC1 [cyclohexanone] + C1CCCCC1
[2]
Conditions | mass density [kg/m3] | viscosity [mPa·s]
x2 = 0 | 941.6 | 2.02
x2 = 0.1147 | 921.8 | 1.813
x2 = 0.2257 | 903 | 1.638
x2 = 0.3332 | 884.8 | 1.475
x2 = 0.4374 | 867.1 | 1.335
x2 = 0.5384 | 849.6 | 1.225
x2 = 0.6363 | 832.5 | 1.126
x2 = 0.7313 | 816 | 1.038
x2 = 0.8235 | 800 | 0.965
x2 = 0.913 | 785.9 | 0.921

O=C1CCCCC1 [cyclohexanone] + CCCOC(C)=O
[2]
Conditions | mass density [kg/m3] | viscosity [mPa·s]
x1 = 0.1036 | 888.2 | 0.609
x1 = 0.2064 | 894.2 | 0.666
x1 = 0.3084 | 900.4 | 0.731
x1 = 0.4096 | 906.5 | 0.821
x1 = 0.5099 | 912.4 | 0.926
x1 = 0.6095 | 918.4 | 1.049
x1 = 0.7083 | 924.3 | 1.199
x1 = 0.8063 | 930.2 | 1.407
x1 = 0.9035 | 936.1 | 1.685
x1 = 1 | 941.6 | 2.02

O=C1CCCCC1 [cyclohexanone] + CCOC(C)=O
[2]
Conditions | mass density [kg/m3] | viscosity [mPa·s]
x1 = 0.0907 | 898.3 | 0.47
x1 = 0.1833 | 902.6 | 0.521
x1 = 0.2778 | 907.3 | 0.585
x1 = 0.3744 | 912.3 | 0.667
x1 = 0.473 | 917.5 | 0.764
x1 = 0.5738 | 922.6 | 0.892
x1 = 0.6769 | 927.6 | 1.058
x1 = 0.7822 | 932.6 | 1.289
x1 = 0.8899 | 937.3 | 1.604
x1 = 1 | 941.6 | 2.02

O=C1CCCCC1 [cyclohexanone] + COC(C)=O
[2]
Conditions | mass density [kg/m3] | viscosity [mPa·s]
x1 = 0.0774 | 927.4 | 0.407
x1 = 0.1587 | 928.5 | 0.445
x1 = 0.2444 | 929.9 | 0.504
x1 = 0.3347 | 931.3 | 0.577
x1 = 0.4301 | 932.9 | 0.666
x1 = 0.531 | 934.6 | 0.779
x1 = 0.6378 | 936.4 | 0.936
x1 = 0.7512 | 938.2 | 1.163
x1 = 0.8717 | 940.2 | 1.488
x1 = 1 | 941.6 | 2.02

CCOC(C)=O [ethyl acetate]
[1]
Conditions | mass density [kg/m3] | viscosity [mPa·s]
– | 894.5 | 0.426

CCOC(C)=O [ethyl acetate] + C1CCCCC1
[2]
Conditions | mass density [kg/m3] | viscosity [mPa·s]
x2 = 0 | 894.5 | 0.426
x2 = 0.1042 | 877 | 0.432
x2 = 0.2074 | 861.2 | 0.436
x2 = 0.3097 | 847 | 0.441
x2 = 0.4111 | 833.9 | 0.462
x2 = 0.5115 | 822.1 | 0.493
x2 = 0.611 | 811.2 | 0.533
x2 = 0.7095 | 801.2 | 0.585
x2 = 0.8072 | 791.8 | 0.653
x2 = 0.904 | 782.7 | 0.749

CCOC(C)=O [ethyl acetate] + O=C1CCCCC1
[2], x2 = 0
Conditions | mass density [kg/m3] | viscosity [mPa·s]
– | 894.5 | 0.426

COC(C)=O [methyl ethanoate]
[1]
Conditions | mass density [kg/m3] | viscosity [mPa·s]
– | 926.8 | 0.38

COC(C)=O [methyl ethanoate] + C1CCCCC1
[2]
Conditions | mass density [kg/m3] | viscosity [mPa·s]
x2 = 0 | 926.8 | 0.38
x2 = 0.0891 | 903.7 | 0.381
x2 = 0.1804 | 883.3 | 0.383
x2 = 0.2739 | 864.7 | 0.388
x2 = 0.3698 | 848.5 | 0.407
x2 = 0.4681 | 833.1 | 0.437
x2 = 0.569 | 819.4 | 0.477
x2 = 0.6725 | 806.4 | 0.535
x2 = 0.7788 | 794.9 | 0.603
x2 = 0.8879 | 784.2 | 0.708

COC(C)=O [methyl ethanoate] + O=C1CCCCC1
[2], x2 = 0
Conditions | mass density [kg/m3] | viscosity [mPa·s]
– | 926.8 | 0.38

CCCOC(C)=O [propyl ethanoate]
[1]
Conditions | mass density [kg/m3] | viscosity [mPa·s]
– | 883 | 0.551

CCCOC(C)=O [propyl ethanoate] + C1CCCCC1
[2]
Conditions | mass density [kg/m3] | viscosity [mPa·s]
x2 = 0 | 883 | 0.551
x2 = 0.1188 | 868.5 | 0.54
x2 = 0.2328 | 854.7 | 0.548
x2 = 0.3421 | 841.8 | 0.554
x2 = 0.4472 | 829.9 | 0.572
x2 = 0.5482 | 819.3 | 0.587
x2 = 0.6454 | 809.3 | 0.625
x2 = 0.739 | 800 | 0.663
x2 = 0.8292 | 791.1 | 0.715
x2 = 0.9161 | 782.3 | 0.786

CCCOC(C)=O [propyl ethanoate] + O=C1CCCCC1
[2], x2 = 0
Conditions | mass density [kg/m3] | viscosity [mPa·s]
– | 883 | 0.551
